The structures appear in SMILES notation. Activity calls are given as the source filed them. No rule for the calls is given here.

For this series, the system named is CCRIS mutagenicity, Ames/micronucleus/aberration tests. Description: CCRIS mutagenicity studies.
[1] abbreviates: Test System: AMES SALMONELLA TYPHIMURIUM, Strain/Indicator: TA97, Metabolic Activation: NONE, Method: STANDARD PLATE.
The mark [2] stands for this setting: Test System: AMES SALMONELLA TYPHIMURIUM, Strain/Indicator: TA98, Metabolic Activation: NONE, Method: STANDARD PLATE.
Where [3] appears, read: Test System: AMES SALMONELLA TYPHIMURIUM, Strain/Indicator: TA100, Metabolic Activation: NONE, Method: STANDARD PLATE.
The mark [4] stands for this setting: Test System: AMES SALMONELLA TYPHIMURIUM, Strain/Indicator: TA102, Metabolic Activation: NONE, Method: STANDARD PLATE.

As to `Cc1nc2c(c3[nH]c4ccccc4c13)C(=O)C(N1CCN(C)CC1)=CC2=O`, the mutagenic call under setting [1] is “inactive; negative”; the mutagenic call (Test System: AMES SALMONELLA TYPHIMURIUM, Strain/Indicator: TA97, Metabolic Activation: RAT, LIVER, S-9, AROCLOR 1254, Method: STANDARD PLATE) was “inactive; negative”; the mutagenic call under setting [2] was “inactive; negative”; the mutagenic call (Test System: AMES SALMONELLA TYPHIMURIUM, Strain/Indicator: TA98, Metabolic Activation: RAT, LIVER, S-9, AROCLOR 1254, Method: STANDARD PLATE) was “inactive; negative”; the mutagenic call under setting [3] was “active; positive”; the mutagenic call (Test System: AMES SALMONELLA TYPHIMURIUM, Strain/Indicator: TA100, Metabolic Activation: RAT, LIVER, S-9, AROCLOR 1254, Method: STANDARD PLATE) is “inactive; negative”. Besides, the mutagenic call by setting is: under setting [4], “inactive; negative”; (Test System: AMES SALMONELLA TYPHIMURIUM, Strain/Indicator: TA102, Metabolic Activation: RAT, LIVER, S-9, AROCLOR 1254, Method: STANDARD PLATE) “inactive; negative”.

Take `O=C(O)c1cn(-c2ccc(F)cc2)c2cc(N3CCNCC3)c(F)cc2c1=O`: the mutagenic call was “inactive; negative” under setting [1]; “inactive; negative” (Test System: AMES SALMONELLA TYPHIMURIUM, Strain/Indicator: TA97, Metabolic Activation: S-9, Method: STANDARD PLATE); “inactive; negative” under setting [2]; “inactive; negative” (Test System: AMES SALMONELLA TYPHIMURIUM, Strain/Indicator: TA98, Metabolic Activation: S-9, Method: STANDARD PLATE); “inactive; negative” under setting [3]; “inactive; negative” (Test System: AMES SALMONELLA TYPHIMURIUM, Strain/Indicator: TA100, Metabolic Activation: S-9, Method: STANDARD PLATE). For the same compound, the mutagenic call by setting is: under setting [4], “inactive; negative”; (Test System: AMES SALMONELLA TYPHIMURIUM, Strain/Indicator: TA102, Metabolic Activation: S-9, Method: STANDARD PLATE) “inactive; negative”.

In the case of `Cc1cc(-c2ccc(N/N=C3\C=Cc4c(S(=O)(=O)O)cc(S(=O)(=O)O)c(N)c4C3=O)c(C)c2)ccc1N/N=C1\C=Cc2c(S(=O)(=O)O)cc(S(=O)(=O)O)c(N)c2C1=O`, the mutagenic call was “active; positive” (Test System: AMES SALMONELLA TYPHIMURIUM, Strain/Indicator: TA98, Metabolic Activation: HAMSTER, LIVER, S-9, Method: PREINCUBATION (PRIVAL METHOD)); “active; positive” (Test System: AMES SALMONELLA TYPHIMURIUM, Strain/Indicator: TA100, Metabolic Activation: HAMSTER, LIVER, S-9, Method: PREINCUBATION (PRIVAL METHOD)); “active; positive. reevaluation of results: equivocal” (Test System: MOUSE LYMPHOMA, Strain/Indicator: L5178Y (TK+/TK-), Metabolic Activation: NONE, Method: SUSPENSION/PLATE); “inactive; negative” (Test System: Mouse lymphoma, Strain/Indicator: L5178Y (tk+/tk-), Metabolic Activation: Rat, Liver, S-9, Aroclor 1254, Method: Suspension/plate).

In the case of `CO[C@@]1(NC(=O)CSC[C@@H](N)C(=O)O)C(=O)N2C(C(=O)O)=C(CSc3nnnn3C)CS[C@@H]21`, the mutagenic call by setting is: (Test System: AMES SALMONELLA TYPHIMURIUM, Strain/Indicator: TA98, Metabolic Activation: NONE) “inactive; negative”; (Test System: AMES SALMONELLA TYPHIMURIUM, Strain/Indicator: TA98, Metabolic Activation: S-9) “inactive; negative”; (Test System: AMES SALMONELLA TYPHIMURIUM, Strain/Indicator: TA100, Metabolic Activation: NONE) “inactive; negative”; (Test System: AMES SALMONELLA TYPHIMURIUM, Strain/Indicator: TA100, Metabolic Activation: S-9) “inactive; negative”; (Test System: AMES SALMONELLA TYPHIMURIUM, Strain/Indicator: TA1535, Metabolic Activation: NONE) “inactive; negative”; (Test System: AMES SALMONELLA TYPHIMURIUM, Strain/Indicator: TA1535, Metabolic Activation: S-9) “inactive; negative”. Besides, the mutagenic call is “inactive; negative” (Test System: AMES SALMONELLA TYPHIMURIUM, Strain/Indicator: TA1537, Metabolic Activation: NONE); “inactive; negative” (Test System: AMES SALMONELLA TYPHIMURIUM, Strain/Indicator: TA1537, Metabolic Activation: S-9); “inactive; negative” (Test System: AMES SALMONELLA TYPHIMURIUM, Strain/Indicator: TA1538, Metabolic Activation: NONE); “inactive; negative” (Test System: AMES SALMONELLA TYPHIMURIUM, Strain/Indicator: TA1538, Metabolic Activation: S-9); “inactive; negative” (Test System: E. COLI, Strain/Indicator: WP2 UVRA, Metabolic Activation: NONE); “inactive; negative” (Test System: E. COLI, Strain/Indicator: WP2 UVRA, Metabolic Activation: S-9).

These data come from PubChem BioAssay AID1259407 (Chemical Carcinogenesis Research Information System (CCRIS), 2018).
